Here are results for one molecule from US20070135470A1, “Utilization of vinpocetine to avoid complications in particular those associated to hearing which occur with epilepsy, and treatment thereof” (UNIVERSIDAD NACIONAL AUTONOMA DE MEXICO, priority 2003, published 2007).

For the assay, the system named is hearing loss induced by PTZ in guinea pigs. Briefly: ABR (auditory) threshold in PTZ-induced epilepsy. Format: in vivo, guinea pig. The method, then: Experiments were performed in pigmented adult male guinea pigs initially weighing 349±38 g. ABRs recordings were used to evaluate the hearing status of each animal and EEG recordings to evaluate changes in cortical excitability. The ABR and EEG recordings were obtained following a method that we have previously reported (Nekrassov and Sitges, 2003). The Institutional Animal Use and Care Committee approved all experimental procedures.
Three types of recordings were performed in the anaesthetized animals, namely the ABR recordings elicited by a stimulus of high intensity (100 dB), the ABR recordings for determination of the auditory threshold and the EEG recordings.
Determination of ABR thresholds. ABR recordings elicited by stimuli of progressively lower intensity (in dB) were used for determining the hearing threshold. Threshold is defined as the lowest stimulus intensity (in dB) at which the P3 wave of the ABR could still be recorded in three consecutive trials.
Student's t-test was used for the evaluation of the differences between results obtained before and at the specified times after the injection of the convulsing agents. The criterion for statistical significance for all measures was P≦0.05. All data are expressed as means±standard error of the mean. In figures and tables the symbol * is used for indicating statistic significant differences.
Eight male guinea pigs were entered into this study. PTZ was dissolved in saline and vinpocetine in a saline acidified (with HCl) adjusted to pH 4 (with NaOH). Four hours after injecting guinea pigs with vehicle (acidified saline used to dissolve vinpocetine) the animals were anaesthetized and a first set of ABR and EEG recordings was taken before the injection (i.p) of the convulsing agent, PTZ. The animals were injected with PTZ (100 mg/kg) and about 2 min after injecting PTZ (ictal period) the EEG recording was taken. Then the other series of ABR and EEG recordings were taken at specific times within the post-ictal period. After two weeks the same series of recordings was taken but instead vehicle the animals were injected with vinpocetine (2 mg/kg) 4 hours before the injection of PTZ.

In the case of `CCOC(=O)C1=C[C@]2(CC)CCCN3CCc4c(n1c1ccccc41)[C@@H]32` [Vinpocetine, ethyl apovincamine-22-oate], the auditory threshold is, setting by setting: (4 kHz, 30 min after PTZ 100 mg/kg i.p., vinpocetine 2 mg/kg or vehicle 4 h before PTZ) 18 ± 1.2 dB; (4 kHz, 50 min after PTZ 100 mg/kg i.p., vinpocetine 2 mg/kg or vehicle 4 h before PTZ) 18 ± 1.2 dB; (4 kHz, before PTZ injection, 4 h after vinpocetine 2 mg/kg, mean±SEM, 8 animals) 20 ± 1.6 dB; (8 kHz, 30 min after PTZ 100 mg/kg i.p., vinpocetine 2 mg/kg or vehicle 4 h before PTZ) 6.0 ± 1.0 dB; (8 kHz, 50 min after PTZ 100 mg/kg i.p., vinpocetine 2 mg/kg or vehicle 4 h before PTZ) 6.0 ± 1.0 dB; (8 kHz, before PTZ injection, 4 h after vinpocetine 2 mg/kg, mean±SEM, 8 animals) 6.0 ± 1.0 dB.
